Data: PubChem BioAssay AID2060511 (Molecular Pharmacology Branch, DTP, NCI, 2025)
pIC50: −log10 of the molar value.

Test system: 422866-222-R5-J1-PDC spheroids with HUVEC/MSC, viability
Assay: Anticancer human tumor 422866-222-R5-J1-PDC patient-derived pancreatic adenocarcinoma cell line growth inhibition [GQUAD]
Details: for pIC50: curve of first compound; for viability, T/C: stronger effect = lower value; active means viability on the fitted dose curve at most 10% of control; inactive means the rest
Outline: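 Tumor cells were grown as complex spheroids with HUVEC endothelial cells and mesenchymal stem cells as stroma. G-quadruplex stabilizers were combined with targeted agents over half-log dilutions from near the clinical Cmax, or from 10 microM.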

[1] = second compound 0.0316 µM, first compound 0.0316 µM
[2] = second compound 0.0316 µM, first compound 0.1 µM
[3] = second compound 0.0316 µM, first compound 0.316 µM
[4] = second compound 0.0316 µM, first compound 1 µM
[5] = second compound 0.0316 µM, first compound 3.16 µM
[6] = second compound 0.0316 µM, first compound 10 µM
[7] = second compound 0.1 µM, first compound 0.0316 µM
[8] = second compound 0.1 µM, first compound 0.1 µM
[9] = second compound 0.1 µM, first compound 0.316 µM
[10] = second compound 0.1 µM, first compound 1 µM
[11] = second compound 0.1 µM, first compound 3.16 µM
[12] = second compound 0.1 µM, first compound 10 µM
[13] = second compound 0.316 µM, first compound 0.0316 µM
[14] = second compound 0.316 µM, first compound 0.1 µM
[15] = second compound 0.316 µM, first compound 0.316 µM
[16] = second compound 0.316 µM, first compound 1 µM
[17] = second compound 0.316 µM, first compound 3.16 µM
[18] = second compound 0.316 µM, first compound 10 µM
[19] = second compound 1 µM, first compound 0.0316 µM
[20] = second compound 1 µM, first compound 0.1 µM
[21] = second compound 1 µM, first compound 0.316 µM
[22] = second compound 1 µM, first compound 1 µM
[23] = second compound 1 µM, first compound 3.16 µM
[24] = second compound 1 µM, first compound 10 µM
[25] = second compound 3.16 µM, first compound 0.0316 µM
[26] = second compound 3.16 µM, first compound 0.1 µM
[27] = second compound 3.16 µM, first compound 0.316 µM
[28] = second compound 3.16 µM, first compound 1 µM
[29] = second compound 3.16 µM, first compound 3.16 µM
[30] = second compound 3.16 µM, first compound 10 µM
[31] = second compound 10 µM, first compound 0.0316 µM
[32] = second compound 10 µM, first compound 0.1 µM
[33] = second compound 10 µM, first compound 0.316 µM
[34] = second compound 10 µM, first compound 1 µM
[35] = second compound 10 µM, first compound 3.16 µM
[36] = second compound 10 µM, first compound 10 µM
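Further: spheroids exposed to compounds for seven days before reading.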
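Wherever viability, T/C is given: percent viability relative to DMSO vehicle control taken as 100%.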

CC(C)(O)C1CCC(Nc2ccc3ncc(-c4cccc(C(F)(F)F)c4)n3n2)CC1 (centres undefined) + Cc1cnc(CNC(=O)c2c(=O)c3ccc(N4CCCN(C)CC4)nc3n3c2sc2ccccc23)cn1
inactive: viability, T/C [1] 102% | viability, T/C [2] 80.6% | viability, T/C [3] 97.1% | viability, T/C [4] 51.4% | viability, T/C [5] 42% | viability, T/C [6] 51.8% | viability, T/C [7] 91.4% | viability, T/C [8] 76.3% | viability, T/C [9] 81.2% | viability, T/C [10] 66.5% | viability, T/C [11] 58.8% | viability, T/C [12] 63.7% | viability, T/C [13] 86.8% | viability, T/C [14] 83.9% | viability, T/C [15] 75.1% | viability, T/C [16] 78.6% | viability, T/C [17] 76.3% | viability, T/C [18] 75.5% | viability, T/C [19] 74.6% | viability, T/C [20] 88.7% | viability, T/C [21] 79.4% | viability, T/C [22] 75.6% | viability, T/C [23] 82.3% | viability, T/C [24] 75.4% | viability, T/C [25] 71.1% | viability, T/C [26] 101% | viability, T/C [27] 76% | viability, T/C [28] 72.8% | viability, T/C [29] 68.5% | viability, T/C [30] 54.1% | viability, T/C [31] 83% | viability, T/C [32] 67.8% | viability, T/C [33] 83.2% | viability, T/C [34] 75.5% | viability, T/C [35] 25.9%
5.84: pIC50 (second compound 0.0316 µM)
active: viability, T/C [36] 0.79%
< 5.00: pIC50 (second compound 0.1 µM) | pIC50 (second compound 0.316 µM) | pIC50 (second compound 1 µM) | pIC50 (second compound 3.16 µM)
5.74: pIC50 (second compound 10 µM)

COc1ncnc(C2CC2)c1-c1ncc2cnn(Cc3ccc(-c4nc(C(F)(F)F)cn4C(C)C)cc3)c2n1 + Cc1cnc(CNC(=O)c2c(=O)c3ccc(N4CCCN(C)CC4)nc3n3c2sc2ccccc23)cn1
< 5.00: pIC50 (second compound 0.0316 µM) | pIC50 (second compound 0.1 µM) | pIC50 (second compound 0.316 µM) | pIC50 (second compound 1 µM) | pIC50 (second compound 3.16 µM) | pIC50 (second compound 10 µM)
inactive: viability, T/C [1] 86.6% | viability, T/C [2] 79.2% | viability, T/C [3] 84.4% | viability, T/C [4] 74.3% | viability, T/C [5] 91.5% | viability, T/C [6] 93.6% | viability, T/C [7] 99.4% | viability, T/C [8] 74.7% | viability, T/C [9] 82.9% | viability, T/C [10] 88.8% | viability, T/C [11] 101% | viability, T/C [12] 86.5% | viability, T/C [13] 84.4% | viability, T/C [14] 72.4% | viability, T/C [15] 78.8% | viability, T/C [16] 80.4% | viability, T/C [17] 93.2% | viability, T/C [18] 94% | viability, T/C [19] 63% | viability, T/C [20] 80.1% | viability, T/C [21] 84.3% | viability, T/C [22] 85.4% | viability, T/C [23] 82.3% | viability, T/C [24] 98.8% | viability, T/C [25] 71.8% | viability, T/C [26] 80.4% | viability, T/C [27] 82.7% | viability, T/C [28] 71.9% | viability, T/C [29] 98.1% | viability, T/C [30] 98% | viability, T/C [31] 70.3% | viability, T/C [32] 80.7% | viability, T/C [33] 88.6% | viability, T/C [34] 72.8% | viability, T/C [35] 84.7% | viability, T/C [36] 88.2%
